Experimental data as given in ChEMBL document CHEMBL3792284, “Synthesis of triazoloquinazolinone based compounds as tubulin polymerization inhibitors and vascular disrupting agents” (Eur J Med Chem, 2016).

What was measured:
A549 [1] = test: Growth inhibition of human A549/ATCC cells at 10 uM after 48 hrs by sulforhodamine B assay; assay type: functional; conditions: A549, 48 h, read-out: GI
[2] = Growth inhibition of human SNB75 cells after 48 hrs by sulforhodamine B assay; assay type: functional; conditions: SNB-75, 48 h
MCF7 = test: Growth inhibition of human MCF7 cells after 48 hrs by sulforhodamine B assay; assay type: functional; conditions: MCF7, 48 h
[3] = Growth inhibition of human HCT116 cells after 48 hrs by sulforhodamine B assay; assay type: functional; conditions: HCT-116, 48 h
HT-29 [4] = test: Growth inhibition of human HT-29 cells at 10 uM after 48 hrs by sulforhodamine B assay; assay type: functional; conditions: HT-29, 48 h, read-out: GI
K562 [5] = test: Growth inhibition of human K562 cells after 48 hrs by sulforhodamine B assay; assay type: functional; conditions: K562, 48 h
HUVEC [6] = test: Inhibition of cell invasion of HUVEC at 0.01 uM after 24 hrs by crystal violet staining based Boyden chamber assay; assay type: functional; conditions: Homo sapiens
HT-29 [7] = test: Antiproliferative activity against human HT-29 cells at 10 uM after 72 hrs by MTS assay; assay type: functional; conditions: HT-29, 72 h
HT-29 [8] = test: Growth inhibition of human HT-29 cells after 48 hrs by sulforhodamine B assay; assay type: functional; conditions: HT-29, 48 h
[9] = Growth inhibition of human SNB75 cells at 10 uM after 48 hrs by sulforhodamine B assay; assay type: functional; conditions: SNB-75, 48 h, read-out: GI
MDA-MB-468 [10] = test: Growth inhibition of human MDA-MB-468 cells at 10 uM after 48 hrs by sulforhodamine B assay; assay type: functional; conditions: MDA-MB-468, 48 h, read-out: GI
[11] = Growth inhibition of human HOP62 cells at 10 uM after 48 hrs by sulforhodamine B assay; assay type: functional; conditions: HOP-62, 48 h, read-out: GI
HUVEC [12] = test: Inhibition of cell invasion of HUVEC at 0.1 uM after 24 hrs by crystal violet staining based Boyden chamber assay; assay type: functional; conditions: Homo sapiens
NCI-H522 [13] = test: Growth inhibition of human NCI-H522 cells at 10 uM after 48 hrs by sulforhodamine B assay; assay type: functional; conditions: NCI-H522, 48 h, read-out: GI
[14] = Growth inhibition of human SF295 cells after 48 hrs by sulforhodamine B assay; assay type: functional; conditions: SF-295, 48 h
MDA-MB-435 [15] = test: Growth inhibition of human MDA-MB-435 cells at 10 uM after 48 hrs by sulforhodamine B assay; assay type: functional; conditions: MDA-MB-435, 48 h, read-out: GI
MDA-MB-435 [16] = test: Cytotoxicity against human MDA-MB-435 cells assessed as cell growth at 10 uM after 48 hrs by sulforhodamine B assay; assay type: functional; conditions: MDA-MB-435, 48 h, read-out: Activity
[17] = Growth inhibition of human HL-60(TB) cells at 10 uM after 48 hrs by sulforhodamine B assay; assay type: functional; conditions: HL-60, 48 h, read-out: GI
[18] = Growth inhibition of human HCT15 cells after 48 hrs by sulforhodamine B assay; assay type: functional; conditions: HCT-15, 48 h
[19] = Cytotoxicity against human OVCAR3 cells assessed as cell growth at 10 uM after 48 hrs by sulforhodamine B assay; assay type: functional; conditions: OVCAR-3, 48 h, read-out: Activity
[20] = Growth inhibition of human HCT15 cells at 10 uM after 48 hrs by sulforhodamine B assay; assay type: functional; conditions: HCT-15, 48 h, read-out: GI
MDA-MB-468 [21] = test: Growth inhibition of human MDA-MB-468 cells after 48 hrs by sulforhodamine B assay; assay type: functional; conditions: MDA-MB-468, 48 h
[22] = Growth inhibition of human COLO205 cells after 48 hrs by sulforhodamine B assay; assay type: functional; conditions: COLO 205, 48 h
NCI-H522 [23] = test: Growth inhibition of human NCI-H522 cells after 48 hrs by sulforhodamine B assay; assay type: functional; conditions: NCI-H522, 48 h
[24] = Growth inhibition of human DU145 cells after 48 hrs by sulforhodamine B assay; assay type: functional; conditions: DU-145, 48 h
A498 = test: Growth inhibition of human A498 cells after 48 hrs by sulforhodamine B assay; assay type: functional; conditions: A498, 48 h
SK-MEL-5 [25] = test: Growth inhibition of human SK-MEL-5 cells at 10 uM after 48 hrs by sulforhodamine B assay; assay type: functional; conditions: SK-MEL-5, 48 h, read-out: GI
A549 [26] = test: Growth inhibition of human A549/ATCC cells after 48 hrs by sulforhodamine B assay; assay type: functional; conditions: A549, 48 h
[27] = Growth inhibition of human PC3 cells at 10 uM after 48 hrs by sulforhodamine B assay; assay type: functional; conditions: PC-3, 48 h, read-out: GI
K562 [28] = test: Growth inhibition of human K562 cells at 10 uM after 48 hrs by sulforhodamine B assay; assay type: functional; conditions: K562, 48 h, read-out: GI
[29] = Growth inhibition of human OVCAR3 cells at 10 uM after 48 hrs by sulforhodamine B assay; assay type: functional; conditions: OVCAR-3, 48 h, read-out: GI
HUVEC [30] = test: Cytotoxicity against HUVEC assessed as inhibition of cell proliferation after 72 hrs by MTS assay; assay type: cell-based; conditions: Homo sapiens
[31] = Growth inhibition of human PC3 cells after 48 hrs by sulforhodamine B assay; assay type: functional; conditions: PC-3, 48 h
[32] = Growth inhibition of human Caki1 cells at 10 uM after 48 hrs by sulforhodamine B assay; assay type: functional; conditions: CAKI-1, 48 h, read-out: GI
[33] = Growth inhibition of human SF295 cells at 10 uM after 48 hrs by sulforhodamine B assay; assay type: functional; conditions: SF-295, 48 h, read-out: GI
SK-MEL-5 [34] = test: Growth inhibition of human SK-MEL-5 cells after 48 hrs by sulforhodamine B assay; assay type: functional; conditions: SK-MEL-5, 48 h
SR = test: Growth inhibition of human SR cells at 10 uM after 48 hrs by sulforhodamine B assay; assay type: functional; conditions: read-out: GI
[35] = Growth inhibition of human DU145 cells at 10 uM after 48 hrs by sulforhodamine B assay; assay type: functional; conditions: DU-145, 48 h, read-out: GI
MDA-MB-435 [36] = test: Growth inhibition of human MDA-MB-435 cells after 48 hrs by sulforhodamine B assay; assay type: functional; conditions: MDA-MB-435, 48 h
Tubulin = Tubulin (Bos taurus, UniProt Q6B856+Q862L2+Q862F3); test: Inhibition of bovine tubulin polymerization after 1 hr by fluorescence spectrometry; assay type: protein assay
[37] = Growth inhibition of human Caki1 cells after 48 hrs by sulforhodamine B assay; assay type: functional; conditions: CAKI-1, 48 h
HUVEC [38] = test: Antiangiogenic activity in HUVEC assessed as disruption of capillaries after 6 hrs by inverted microscopic analysis; assay type: functional, cell-based; conditions: Homo sapiens
HUVEC [39] = test: Inhibition of cell invasion of HUVEC at 1 uM after 24 hrs by crystal violet staining based Boyden chamber assay; assay type: functional; conditions: Homo sapiens
HUVEC [40] = test: Inhibition of cell invasion of HUVEC after 24 hrs by crystal violet staining based Boyden chamber assay; assay type: functional; conditions: Homo sapiens
U-251 = test: Growth inhibition of human U251 cells after 48 hrs by sulforhodamine B assay; assay type: functional; conditions: U-251, 48 h
NCI-H522 [41] = test: Cytotoxicity against human NCI-H522 cells assessed as cell growth at 10 uM after 48 hrs by sulforhodamine B assay; assay type: functional; conditions: NCI-H522, 48 h, read-out: Activity

COc1ccc(-c2nnc3n(C)c(=O)c4ccccc4n23)cc1O
inhibition of growth at 10 µM (A549 [1]): 82%
GI50 [2]: 0.041 µM
GI50 (MCF7): 0.048 µM
GI50 [3]: 0.057 µM
inhibition of growth at 10 µM (HT-29 [4]): 81%
GI50 (K562 [5]): 0.04 µM
inhibition at 0.01 µM (HUVEC [6]): 12%
inhibition at 10 µM (HT-29 [7]): 71%
GI50 (HT-29 [8]): 4.31 µM
inhibition of growth at 10 µM [9]: 88%
inhibition of growth at 10 µM (MDA-MB-468 [10]): 70%
inhibition of growth at 10 µM [11]: 90%
inhibition at 0.1 µM (HUVEC [12]): 36%
inhibition of growth at 10 µM (NCI-H522 [13]): 100%
GI50 [14]: 1.99 µM
inhibition of growth at 10 µM (MDA-MB-435 [15]): 100%
growth at 10 µM (MDA-MB-435 [16]): 62%
inhibition of growth at 10 µM [17]: 100%
GI50 [18]: 0.052 µM
growth at 10 µM [19]: 16%
inhibition of growth at 10 µM [20]: 81%
GI50 (MDA-MB-468 [21]): 4.33 µM
GI50 [22]: 3.82 µM
GI50 (NCI-H522 [23]): 0.031 µM
GI50 [24]: 2.36 µM
GI50 (A498): 6.42 µM
inhibition of growth at 10 µM (SK-MEL-5 [25]): 75%
GI50 (A549 [26]): 1.84 µM
inhibition of growth at 10 µM [27]: 73%
inhibition of growth at 10 µM (K562 [28]): 92%
inhibition of growth at 10 µM [29]: 100%
IC50 (HUVEC [30]): 2.48 µM
GI50 [31]: 1.43 µM
inhibition of growth at 10 µM [32]: 66%
inhibition of growth at 10 µM [33]: 93%
GI50 (SK-MEL-5 [34]): 0.059 µM
inhibition of growth at 10 µM (SR): 95%
inhibition of growth at 10 µM [35]: 81%
GI50 (MDA-MB-435 [36]): 0.023 µM
IC50 (Tubulin): 0.15 µM
GI50 [37]: 1.22 µM
Activity (HUVEC [38]): Dose-dependent effect
inhibition at 1 µM (HUVEC [39]): 89%
inhibition (HUVEC [40]): Dose-dependent effect
GI50 (U-251): 0.125 µM
growth at 10 µM (NCI-H522 [41]): 5%
